Laboratory results published in patent US6929667B2, “Method for the fluorescent whitening of cotton” (Ciba Specialty Chemicals Corporation, priority 2000, dated 2005).

What was measured:
[1] = Determination of pH stability: Ganz whiteness of bleached cotton padded with the stored solutions; conditions: liquor pick-up 65%
Description: (§1) The sensitivity of the test compounds (102)-(104) of the invention and of the commercial compound (103) to acidic pH values is evaluated in a bath and on the cotton fabric.
(§2) A solution containing 0.8 g/l of the test compound (as active ingredient) in drinking water (approximately 11° German hardness) is prepared and separate samples of the solution are adjusted to different pH values and stored in the dark at 25° C. The appearance of each sample is assessed immediately and also after 1, 2 and 4 hours storage.
Following the 4 hour appearance assessment, separate samples of bleached cotton are padded with the respective solutions (liquor pick-up 65%). The fabric samples are dried at 70° C. for 20 minutes and the whiteness values determined according to the method of Ganz.

[2] = Determination of fibre affinity: Ganz whiteness of bleached cotton after exhaust treatment at 95° C.; conditions: for Whiteness Value: Ganz whiteness, 0.2% whitener on fibre weight, exhaust method, liquor ratio 1:40, up to 95° C., measure of affinity to cotton
Description: Various bleached cotton swatches are treated by the exhaust method in an aqueous bath having the following composition: • 0.2% of test fluorescent whitener (100% active substance), based on the weight of the fibre, • 0.5 ml/l Ultravon EL™, • 20 ml/l 3% aqueous sodium hydroxide solutions, • 2 ml/l 10% aqueous sodium silicate solution and • 3 ml/l 35% aqueous hydrogen peroxide solution.
The fluorescent whiteners used were compounds (102)-(104) of the present invention and a commercial product having the formula [drawing 11]
The treatment is conducted at a liquor ratio of 1:40 for 30 minutes at from 25 to 95° C., then for a further 60 minutes at 95° C. and, finally, cooled to 30° C. The swatches are removed from the treatment bath, rinsed and dried at 60° C.
Due to the high application temperature of 95° C., the tested compounds must have high affinity to cotton to provide high whiteness levels. Consequently, the whiteness values are a suitable measure of affinity, i.e. high whiteness corresponds to high affinity.
Whiteness was measured according to the method of Ganz, which is described in detail in the Ciba-Geigy Review, 1973/1 and also in the article “Whiteness Measurement”, ISCC Conference on Fluorescence and the Colorimetry of Fluorescent Materials, Williamsburg, February 1972, published in the Journal of Color and Appearance, 1, No. 5 (1972).

[3] = Determination of pH stability: appearance of 0.8 g/l solution at different pH values on storage; type: physicochemical; conditions: 0.8 g/l in drinking water, dark, 25° C.
Description: as §1, §2

[4] = cotton padded with pH 3 solution after 4 hours storage
[5] = cotton padded with pH 4 solution after 4 hours storage
[6] = cotton padded with pH 5 solution after 4 hours storage
[7] = cotton padded with pH 6 solution after 4 hours storage
[8] = cotton padded with pH 7 solution after 4 hours storage

CC(O)CN(CC(C)O)c1nc(Nc2ccc(S(=O)(=O)CCO)cc2)nc(Nc2ccc(/C=C/c3ccc(Nc4nc(Nc5ccc(S(=O)(=O)CCO)cc5)nc(N(CC(C)O)CC(C)O)n4)cc3S(=O)(=O)[O-])c(S(=O)(=O)[O-])c2)n1.[Na+].[Na+] (stereo not drawn) [(102)]
193: Whiteness [1, 7] | Whiteness [1, 8]
194: Whiteness [1, 6]
high affinity to the fibre: Affinity to the fibre (judged from whiteness value) ([2]; whiteness only slightly lower than that of the conventional commercial FWA)
171: Whiteness [1, 4]
192: Whiteness [1, 5]
clear: Appearance of solution ([3]; 1 hour, pH 4) | Appearance of solution ([3]; 1 hour, pH 5) | Appearance of solution ([3]; 1 hour, pH 6) | Appearance of solution ([3]; 1 hour, pH 7) | Appearance of solution ([3]; 2 hours, pH 4) | Appearance of solution ([3]; 2 hours, pH 5) | Appearance of solution ([3]; 2 hours, pH 6) | Appearance of solution ([3]; 2 hours, pH 7) | Appearance of solution ([3]; 4 hours, pH 4) | Appearance of solution ([3]; 4 hours, pH 5) | Appearance of solution ([3]; 4 hours, pH 6) | Appearance of solution ([3]; 4 hours, pH 7) | Appearance of solution ([3]; Immediate, pH 4) | Appearance of solution ([3]; Immediate, pH 5) | Appearance of solution ([3]; Immediate, pH 6) | Appearance of solution ([3]; Immediate, pH 7)
234: Whiteness Value [2]

O=S(=O)([O-])c1cc(Nc2nc(Nc3ccc(S(=O)(=O)CCO)cc3)nc(N(CCO)CCO)n2)ccc1/C=C/c1ccc(Nc2nc(Nc3ccc(S(=O)(=O)CCO)cc3)nc(N(CCO)CCO)n2)cc1S(=O)(=O)[O-].[Na+].[Na+] [(103)]
clear: Appearance of solution ([3]; 1 hour, pH 5) | Appearance of solution ([3]; 1 hour, pH 6) | Appearance of solution ([3]; 1 hour, pH 7) | Appearance of solution ([3]; 2 hours, pH 5) | Appearance of solution ([3]; 2 hours, pH 6) | Appearance of solution ([3]; 2 hours, pH 7) | Appearance of solution ([3]; 4 hours, pH 5) | Appearance of solution ([3]; 4 hours, pH 6) | Appearance of solution ([3]; 4 hours, pH 7) | Appearance of solution ([3]; Immediate, pH 5) | Appearance of solution ([3]; Immediate, pH 6) | Appearance of solution ([3]; Immediate, pH 7)
53: Whiteness [1, 4]
cloudy: Appearance of solution ([3]; 1 hour, pH 3) | Appearance of solution ([3]; 1 hour, pH 4) | Appearance of solution ([3]; 2 hours, pH 3) | Appearance of solution ([3]; 2 hours, pH 4) | Appearance of solution ([3]; 4 hours, pH 3) | Appearance of solution ([3]; 4 hours, pH 4) | Appearance of solution ([3]; Immediate, pH 3)
184: Whiteness [1, 7]
160: Whiteness [1, 6]
224: Whiteness Value [2]
186: Whiteness [1, 8]
115: Whiteness [1, 5]
